The results in this text go back to patent US20230323373A1, “SPRAYABLE CELL-PENETRATING PEPTIDES FOR SUBSTANCE DELIVERY IN PLANTS” (BASF Plant Science Company GmbH, priority 2020, published 2023).

One assay deals with Arabidopsis leaf. The experiment in a line: Translocation of sprayed TAMRA-CPPs into Arabidopsis leaf cells (CLSM fluorescence). It counts as in vivo, Arabidopsis thaliana. Particulars: for cell penetrating efficiency: epidermal cells, TAMRA-labelled CPP 1 mg/L in water, compared with KH9 and R9. An excerpt:
Cell-penetrating peptides (CPPs), also called protein transduction domains, are short peptides that facilitate the transport of cargo molecules through membranes to gain access to the cells. In many cases, CPPs are coupled to cargo molecules through covalent conjugation, forming CPP-cargo complexes. To date, DNA, RNA, nanomaterials and proteins such as antibodies were reported as cargo molecules. Most studies of the complex of CPPs and protein have contributed to the applications in mammalian cells, whereas only very limited studies have focused on plant cells. […] The plant cells are mainly containing cellulose, hemicellulose and pectin. […] BP100 (KKLFKKILKYL—SEQ ID NO: 7) is an amphiphilic peptide and has CPP function. KH9 (KHKHKHKHKHKHKHKHKH—SEQ ID NO: 10), R9 (RRRRRRRRR SEQ ID NO: 8), and D-R9 (rrrrrrrrr, D-form of R9 - SEQ ID NO: 9) are peptides containing both CPP and cationic biomolecule binding functions. BP100(KH)9 ([…]—SEQ ID NO: 11) and BP100CH7 ([…]—SEQ ID NO: 12) are fusion peptides containing CPP and cationic sequences which are designed as stimulus-response peptides and could release the cargo molecules (peptides, protein, RNA, DNA) into the cytoplasm. KAibA(KH)9, K-alpha-aminoisobutyric acid (AibA)-AKHKHKHKHKHKHKHKHKH, and KAibA(D-R9), K-alpha-aminoisobutyric acid (AibA)-Arrrrrrrrr are synthetic peptides and containing both CPP and cationic biomolecule binding functions. KAibA (U.S. Ser. No. 16/832,749) was chemoenzymatically synthesized using the polymerization reaction (ACS Biomater. Sci. Eng. 2020, 6, 6, 3287-3298). TAMRA-CPPs are CPPs that labeled by fluorescent molecule 5-carboxytetramethylrhodamine (TAMRA) at the C-terminal end and were used for optimization of various conditions. For the labelling of CPP with TAMRA, the amino acids in Boc-CPPs were deprotected using tri-fluoroacetic acid (TFA). A solution of tetramethylrhodamine-5-isothiocyanate in dimethyl sulfoxide (DMSO) was added to CPP solutions and kept stirring at 25° C. for 14 h. The solution was centrifuged at maximum speed at 4° C. for 60 minutes and the precipitate was washed with Milli-Q water. After lyophilizing, a pink solid was obtained. Dried precipitate of TAM RA-CPP was re-suspended with Milli-q and the TAMRA-CPP solution was kept at 1.0 mg/mL concentration in −80° C. Plasmid DNA that contains expression cassette of reporter gene such as GUS (SEQ ID NO: 1), GFP (SEQ ID NO: 2), DsRed (SEQ ID NO: 3), and Renilla luciferase (Rluc—SEQ ID NO: 4) was used to detect successful delivery into plant cells. […]
Each TAMRA-CPP was adjusted as concentration at 1 mg/L in water. […] Leaf surface was washed three times with water after 30, 90 and 150 min post spraying, and the intensity of fluorescence was measured by CLSM imaging analysis (FIG. 2A). […]

The next assay relates to soybean leaves. The experiment in a line: Translocation of sprayed TAMRA-CPPs into soybean leaves (fluorescence imaging). It counts as in vivo, Glycine max. Particulars: for cell penetrating efficiency: soybean leaves, in general. Here is the method: Seeds of soybean (Glycine max) cultivars Enrei, William-82, and Peking, were germinated between germination papers that has been moistened with tap water. Then the seeds with papers were placed in a plastic bag and incubated in a growth chamber under 18 hours light/6 hours dark at 26° C. for three days. One and a quarter tea spoon of Multicoat 4 was mixed with 2 L of autoclaved sand, which was then moistened with tap water. Three days old soybean seedlings were then transplanted into containers filled with moist sand mix and incubated in the same growth chamber. Leaves from 5 weeks old plants were used for experiments.
Soybean leaves are different in both architecture and leaf chemical components. We further examined the translocation efficiency of highly efficient native CPP sequences in soybean leaves. Leaves from 5 weeks old plants were used for the experiment. Solutions containing 1.0 mg/mL of natural TAMRA-CPP; TAMRA-BP100, TAMRA-KH9, TAMRA-R9, and TAMRA-D-R9 were sprayed on soybean leaves of 3 different cultivars (Enrei, Peking, and William-82) and incubated for 30 min, 90 min, and 150 min (FIG. 3A). The fluorescence imaging and image analysis were conducted to determine the translocation efficiency of these CPPs to plant leaves. […] Different soybean cultivars responded differently to the translocation of CPPs to plant cells.
We tried to determine the efficiency of artificial CPPs containing Aib to soybean leaves using spraying. KAibA, KAibK, and KAibG were synthesized and labelled with TAMRA as described in Example 1. The solutions containing 1 mg/mL of these artificial TAMRA-CPPs were sprayed to fully expanded leaves of 5-weeks old soybean cultivar Enrei and the fluorescence imaging was carried out at 30 min, 90 min, and 150 min after spraying. […] However, the average fluorescent intensity in TAMRA-KAibA-treated soybean leaves was lower than that previously achieved by TAMRA-D-R9 (FIG. 3B and C).

Square brackets hold non-standard residues; d marks the D form. Ends that are not written are not given here.

Take KKLFKKILKYL (BP100): the cell penetrating efficiency entry in the assay with Arabidopsis leaf and in the assay with soybean leaves was “higher cell penetrating efficiency” throughout.
Consider “rrrrrrrrr ([dR][dR][dR][dR][dR][dR][dR][dR][dR]) [D-R9]”, for which, in the assay with Arabidopsis leaf (Arabidopsis leaf, summary), the “depth of penetration and persistence in tissue” value is “able to penetrate deep inside of the tissue and stay longer without degradation”. The cell penetrating efficiency entry in the assay on Arabidopsis leaf and with soybean leaves was “higher cell penetrating efficiency” throughout. In the assay with Arabidopsis leaf (mesophyll cells), the penetrating efficiency entry was “highest penetrating efficiency”. In the assay with soybean leaves (cultivar Peking), the cell penetrating effect result is “most efficient cell penetrating effect”.
